Experimental data as given in patent US20220144839A1, “INDOLE AHR INHIBITORS AND USES THEREOF” (Ikena Oncology, Inc., priority 2018, published 2022).
pIC50: −log10 of the molar value.

Biological target: T1, AHR (UniProt P35869)
T1 sequence (P35869 1-848): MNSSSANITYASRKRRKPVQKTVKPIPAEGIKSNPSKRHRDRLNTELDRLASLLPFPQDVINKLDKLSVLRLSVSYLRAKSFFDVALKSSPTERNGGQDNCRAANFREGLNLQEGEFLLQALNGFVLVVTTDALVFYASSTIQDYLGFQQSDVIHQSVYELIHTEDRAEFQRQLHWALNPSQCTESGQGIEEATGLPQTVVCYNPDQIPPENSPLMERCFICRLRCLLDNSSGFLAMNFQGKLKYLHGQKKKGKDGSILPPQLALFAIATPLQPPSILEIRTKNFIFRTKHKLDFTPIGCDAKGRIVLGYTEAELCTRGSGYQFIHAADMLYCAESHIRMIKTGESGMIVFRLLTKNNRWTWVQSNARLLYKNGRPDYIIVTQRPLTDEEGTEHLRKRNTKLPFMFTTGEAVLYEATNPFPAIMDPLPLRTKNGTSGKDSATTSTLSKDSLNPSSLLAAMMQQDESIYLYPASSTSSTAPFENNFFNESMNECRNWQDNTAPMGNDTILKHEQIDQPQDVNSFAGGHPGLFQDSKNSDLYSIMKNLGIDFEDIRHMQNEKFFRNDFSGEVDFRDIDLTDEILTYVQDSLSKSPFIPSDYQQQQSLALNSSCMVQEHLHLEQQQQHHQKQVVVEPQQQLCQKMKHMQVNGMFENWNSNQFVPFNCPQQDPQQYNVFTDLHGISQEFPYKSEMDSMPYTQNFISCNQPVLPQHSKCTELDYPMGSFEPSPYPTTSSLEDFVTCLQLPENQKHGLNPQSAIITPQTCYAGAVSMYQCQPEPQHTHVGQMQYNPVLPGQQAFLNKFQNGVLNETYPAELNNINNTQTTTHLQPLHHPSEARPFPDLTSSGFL
Assay: DRE-Luciferase Reporter Assay (Alternate Method), Example 1B
Assay type: cell-based
Settings: concentration which inhibits half of the luciferase activity induced by AHR activating ligand; DRE-luciferase reporter cell line
Experimental: AHR binds to Dioxin Responsive Elements (DRE) upstream of genes that it activates. One measure of AHR activity is activation of a reporter gene, such as luciferase, downstream of one or multiple DRE elements. Luciferase activity will reflect activation and inhibition of AHR in the cells expressing his reporter.
Murine Hepa1-6 or Hepa-1c1c7 or other murine cell line with a DRE-luciferase reporter either stably or transiently transfected were plated in media in plates (96-well, 384-well or other plates) and incubated overnight at 37° C. in a C02 incubator or compound and agonist were added at the time of plating. Likewise, human HepG2 or other human cell line with a DRE-luciferase reporter either stably or transiently transfected were plated in media in plates (96-well, 384-well or other plates) and incubated overnight at 37° C. in a C02 incubator or compound and agonist were added at the time of plating.
At the time that cells are plated or following incubation overnight, an AHR activating ligand, such as TCDD, kynurenine, ITE (2-(1H-indole-3-ylcarbonyl)-4-thiazolecarboxylic methyl ester), VAF347, BNF (beta-naphthoflavone), FICZ (6-formylindolo(3,2-b) carbazole or other AHR ligands, was added with or without AHR antagonist.
Cells were incubated for 4, 15 or 24 hours or another time point and then lysed for determination of luciferase activity as a read-out of the AHR activation or inhibition. Luciferase was measured with a commercial kit such as the Promega Luciferase kit or any kit or reagents that provide the luciferin substrate for measuring luciferase activity. The level of luciferase with only activating ligand added was the maximum signal while the luciferase with no ligand was the minimum signal. IC50 values were determined as the concentration which inhibits half of the luciferase activity.

How did the pIC50 turn out when `C[C@H](NCC1CC1)c1cnn2c(N[C@@H]3CCc4[nH]c5ccccc5c4C3)nc(-c3cncc(F)c3)nc12` [Compound I-20a, (3R)—N-[8-[(1S)-1-(Cyclopropylmethylamino)ethyl]-2-(5-fluoro-3-pyridyl)pyrazolo[1,5-a][1,3,5]triazin-4-yl]-2,3,4,9-tetrahydro-1H-carbazol-3-amine] was run?
Its pIC50 is 5.82 to 6.00.

How did the pIC50 turn out when `C[C@@H](NCC1CC1)c1cnn2c(N[C@@H]3CCc4[nH]c5ccccc5c4C3)nc(-c3cncc(F)c3)nc12` [Compound I-20b, (3R)—N-[8-[(1R)-1-(Cyclopropylmethylamino)ethyl]-2-(5-fluoro-3-pyridyl)pyrazolo[1,5-a][1,3,5]triazin-4-yl]-2,3,4,9-tetrahydro-1H-carbazol-3-amine] was run?
Its pIC50 is over 6.30.

With `CC(C)c1cnn2c(N[C@@H]3CCc4[nH]c5ccccc5c4C3)nc(-n3cccn3)nc12` [Compound I-21, (3R)—N-(8-isopropyl-2-pyrazol-1-yl-pyrazolo[1,5-a][1,3,5]triazin-4-yl)-2,3,4,9-tetrahydro-1H-carbazol-3-amine] as the compound, how does the pIC50 read?
Its pIC50 is under 5.82.

`Cc1ccnc2c(N[C@@H]3CCc4[nH]c5ccccc5c4C3)nc(-c3cncc(F)c3)nc12` [Compound I-22, (3R)—N-[2-(5-fluoro-3-pyridyl)-8-methyl-pyrido[3,2-d]pyrimidin-4-yl]-2,3,4,9-tetrahydro-1H-carbazol-3-amine] was tested. Which pIC50 did it give?
The pIC50 was over 6.30.

`COc1ccnc2c(N[C@@H]3CCc4[nH]c5ccccc5c4C3)nc(-c3cncc(F)c3)nc12` [Compound I-23, (3R)—N-[2-(5-fluoro-3-pyridyl)-8-methoxy-pyrido[3,2-d]pyrimidin-4-yl]-2,3,4,9-tetrahydro-1H-carbazol-3-amine] was tested. Which pIC50 did it give?
Its pIC50 is over 6.30.

How did the pIC50 turn out when `CC(C)c1cnn2c(N[C@@H]3CCc4[nH]c5c(O)cccc5c4C3)nc(-c3cncc(F)c3)nc12` [Compound I-24a, (6R)-6-[[2-(5-fluoro-3-pyridyl)-8-isopropyl-pyrazolo[1,5-a][1,3,5]triazin-4-yl]amino]-6,7,8,9-tetrahydro-5H-carbazol-1-ol] was run?
The pIC50 was under 5.82.

`CC(C)c1cnn2c(N[C@H]3CCc4[nH]c5c(O)cccc5c4C3)nc(-c3cncc(F)c3)nc12` [Compound I-24b, (6S)-6-[[2-(5-fluoro-3-pyridyl)-8-isopropyl-pyrazolo[1,5-a][1,3,5]triazin-4-yl]amino]-6,7,8,9-tetrahydro-5H-carbazol-1-ol] was tested. Which pIC50 did it give?
Its pIC50 is under 5.82.

`C[C@@H](CO)c1cnn2c(N[C@@H]3CCc4[nH]c5ccccc5c4C3)nc(-c3cncc(F)c3)nc12` [Compound I-25a, (2R)-2-[2-(5-Fluoro-3-pyridyl)-4-[[(3R)-2,3,4,9-tetrahydro-1H-carbazol-3-yl]amino]pyrazolo[1,5-a][1,3,5]triazin-8-yl]propan-1-ol] was tested. Which pIC50 did it give?
The pIC50 was over 6.30.

`C[C@H](CO)c1cnn2c(N[C@@H]3CCc4[nH]c5ccccc5c4C3)nc(-c3cncc(F)c3)nc12` [Compound I-25b, (2S)-2-[2-(5-Fluoro-3-pyridyl)-4-[[(3R)-2,3,4,9-tetrahydro-1H-carbazol-3-yl]amino]pyrazolo[1,5-a][1,3,5]triazin-8-yl]propan-1-ol] was tested. Which pIC50 did it give?
Its pIC50 is over 6.30.

With `Fc1cc(-c2nc(N[C@@H]3CCc4[nH]c5ccccc5c4C3)n3nccc3n2)cnc1[C@H]1CCCN1` [Compound I-26b, (3R)—N-[2-[5-Fluoro-6-[(2R)-pyrrolidin-2-yl]-3-pyridyl]pyrazolo[1,5-a][1,3,5]triazin-4-yl]-2,3,4,9-tetrahydro-1H-carbazol-3-amine] as the compound, how does the pIC50 read?
Its pIC50 is under 5.82.

`CC(C)c1cnn2c(N[C@@H]3CCc4[nH]c5cc(O)ccc5c4C3)nc(-c3cncc(F)c3)nc12` [Compound I-27a, (6R)-6-[[2-(5-Fluoro-3-pyridyl)-8-isopropyl-pyrazolo[1,5-a][1,3,5]triazin-4-yl]amino]-6,7,8,9-tetrahydro-5H-carbazol-2-ol] was tested. Which pIC50 did it give?
Its pIC50 is under 5.82.

With `CC(C)c1cnn2c(N[C@H]3CCc4[nH]c5cc(O)ccc5c4C3)nc(-c3cncc(F)c3)nc12` [Compound I-27b, (6S)-6-[[2-(5-Fluoro-3-pyridyl)-8-isopropyl-pyrazolo[1,5-a][1,3,5]triazin-4-yl]amino]-6,7,8,9-tetrahydro-5H-carbazol-2-ol] as the compound, how does the pIC50 read?
The pIC50 was under 5.82.

`CC(C)c1cnn2c(N[C@H]3CCc4[nH]c5cccc(O)c5c4C3)nc(-c3cncc(F)c3)nc12` [Compound I-29a, (6S)-6-[[2-(5-Fluoro-3-pyridyl)-8-isopropyl-pyrazolo[1,5-a][1,3,5]triazin-4-yl]amino]-6,7,8,9-tetrahydro-5H-carbazol-4-ol] was tested. Which pIC50 did it give?
Its pIC50 is under 5.82.

How did the pIC50 turn out when `CC(C)c1cnn2c(N[C@@H]3CCc4[nH]c5cccc(O)c5c4C3)nc(-c3cncc(F)c3)nc12` [Compound I-29b, (6R)-6-[[2-(5-Fluoro-3-pyridyl)-8-isopropyl-pyrazolo[1,5-a][1,3,5]triazin-4-yl]amino]-6,7,8,9-tetrahydro-5H-carbazol-4-ol] was run?
Its pIC50 is under 5.82.

`Fc1cncc(-c2nc(N[C@@H]3CCc4[nH]c5ccccc5c4C3)n3nc4c(c3n2)CCCC4)c1` [Compound I-30, 2-(5-fluoro-3-pyridyl)-N-[(3R)-2,3,4,9-tetrahydro-1H-carbazol-3-yl]-7,8,9,10-tetrahydro-[1,3,5]triazino[1,2-b]indazol-4-amine] was tested. Which pIC50 did it give?
The pIC50 was 6.00 to 6.30.

How did the pIC50 turn out when `Nc1cnn2c(N[C@@H]3CCc4[nH]c5ccccc5c4C3)nc(-c3cncc(F)c3)nc12` [Compound I-31, 2-(5-Fluoro-3-pyridyl)-N4-[(3R)-2,3,4,9-tetrahydro-1H-carbazol-3-yl]pyrazolo[1,5-a][1,3,5]triazine-4,8-diamine] was run?
The pIC50 was over 6.30.

With `C[C@H](N)c1cnn2c(N[C@@H]3CCc4[nH]c5ccccc5c4C3)nc(-c3cncc(F)c3)nc12` [Compound I-32a, (3R)—N-[8-[(1S)-1-Aminoethyl]-2-(5-fluoro-3-pyridyl)pyrazolo[1,5-a][1,3,5]triazin-4-yl]-2,3,4,9-tetrahydro-1H-carbazol-3-amine] as the compound, how does the pIC50 read?
Its pIC50 is over 6.30.

How did the pIC50 turn out when `C[C@@H](N)c1cnn2c(N[C@@H]3CCc4[nH]c5ccccc5c4C3)nc(-c3cncc(F)c3)nc12` [Compound I-32b, (3R)—N-[8-[(1R)-1-aminoethyl]-2-(5-fluoro-3-pyridyl)pyrazolo[1,5-a][1,3,5]triazin-4-yl]-2,3,4,9-tetrahydro-1H-carbazol-3-amine] was run?
The pIC50 was over 6.30.

With `Fc1cncc(-c2nc(N[C@@H]3CCc4[nH]c5ccccc5c4C3)n3nc4c(c3n2)COCC4)c1` [Compound I-33, 2-(5-fluoro-3-pyridyl)-N-[(3R)-2,3,4,9-tetrahydro-1H-carbazol-3-yl]-8,10-dihydro-7H-pyrano[2,3]pyrazolo[2,4-c][1,3,5]triazin-4-amine] as the compound, how does the pIC50 read?
Its pIC50 is over 6.30.

`CC(C)c1cnn2c(N[C@H]3CCc4[nH]c5ccc(O)cc5c4C3)nc(-c3cncc(F)c3)nc12` [Compound I-34a, (6S)-6-[[2-(5-Fluoro-3-pyridyl)-8-isopropyl-pyrazolo[1,5-a][1,3,5]triazin-4-yl]amino]-6,7,8,9-tetrahydro-5H-carbazol-3-ol] was tested. Which pIC50 did it give?
Its pIC50 is under 5.82.

With `CC(C)c1cnn2c(N[C@@H]3CCc4[nH]c5ccc(O)cc5c4C3)nc(-c3cncc(F)c3)nc12` [Compound I-34b, (6R)-6-[[2-(5-Fluoro-3-pyridyl)-8-isopropyl-pyrazolo[1,5-a][1,3,5]triazin-4-yl]amino]-6,7,8,9-tetrahydro-5H-carbazol-3-ol] as the compound, how does the pIC50 read?
Its pIC50 is under 5.82.

With `CC(C)c1cnn2c(N[C@@H]3CNc4ccccc4C3)nc(-c3cncc(F)c3)nc12` [Compound I-35a, (3S)—N-[2-(5-Fluoro-3-pyridyl)-8-isopropyl-pyrazolo[1,5-a][1,3,5]triazin-4-yl]-1,2,3,4-tetrahydroquinolin-3-amine] as the compound, how does the pIC50 read?
Its pIC50 is 5.82 to 6.00.

With `CC(C)c1cnn2c(N[C@H]3CNc4ccccc4C3)nc(-c3cncc(F)c3)nc12` [Compound I-35b, (R)—N-(2-(5-Fluoropyridin-3-yl)-8-isopropylpyrazolo[1,5-a][1,3,5]triazin-4-yl)-1,2,3,4-tetrahydroquinolin-3-amine] as the compound, how does the pIC50 read?
Its pIC50 is 6.00 to 6.30.
